In the supplement of paper PMC10307832 one finds relative viability data, which are given here for 7 cell lines.

What all share (test): relative viability (nuclei count vs DMSO), 5 days (fraction); higher = more cells survive
Compound in the assay “Bleomycin + Pictilisib”: CC1=C(N=C(N=C1N)[C@H](CC(=O)N)NC[C@@H](C(=O)N)N)C(=O)N[C@@H]([C@H](C2=CN=CN2)OC3C(C(C(C(O3)CO)O)O)OC4C(C(C(C(O4)CO)O)OC(=O)N)O)C(=O)N[C@H](C)[C@H]([C@H](C)C(=O)N[C@@H]([C@@H](C)O)C(=O)NCCC5=NC(=CS5)C6=NC(=CS6)C(=O)NCCC[S+](C)C)O [Bleomycin] + CS(=O)(=O)N1CCN(Cc2cc3nc(-c4cccc5[nH]ncc45)nc(N4CCOCC4)c3s2)CC1 [Pictilisib] (partner 1 µM)
Particulars: main component drawn. The method, boiled down: (§1)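 Relative viability divides the nuclei count in treated wells by that in vehicle wells. Lung cancer cell lines were seeded in 1536-well plates, dosed by pin tool the next day, and fixed and stained after 5 days in one step with final 0.05% Triton X-100, 1% formaldehyde and 1 ug/ml Hoechst. Dosing was a single drug or a fixed anchor-drug dose plus five library-drug doses (not always all listed) in √10 steps, and values are medians of duplicate plates imaged at 4×.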

Compound in the assay “Bleomycin + Foretinib”: CC1=C(N=C(N=C1N)[C@H](CC(=O)N)NC[C@@H](C(=O)N)N)C(=O)N[C@@H]([C@H](C2=CN=CN2)OC3C(C(C(C(O3)CO)O)O)OC4C(C(C(C(O4)CO)O)OC(=O)N)O)C(=O)N[C@H](C)[C@H]([C@H](C)C(=O)N[C@@H]([C@@H](C)O)C(=O)NCCC5=NC(=CS5)C6=NC(=CS6)C(=O)NCCC[S+](C)C)O [Bleomycin] + COc1cc2c(Oc3ccc(NC(=O)C4(C(=O)Nc5ccc(F)cc5)CC4)cc3F)ccnc2cc1OCCCN1CCOCC1 [Foretinib] (partner 0.25 µM)
Particulars: main component drawn. The method, boiled down: as §1

Compound in the assay “Etoposide + Tozasertib”: COc1cc([C@@H]2c3cc4c(cc3[C@@H](O[C@@H]3O[C@@H]5CO[C@@H](C)O[C@H]5[C@H](O)[C@H]3O)[C@H]3COC(=O)[C@H]23)OCO4)cc(OC)c1O [Etoposide] + Cc1cc(Nc2cc(N3CCN(C)CC3)nc(Sc3ccc(NC(=O)C4CC4)cc3)n2)n[nH]1 [Tozasertib] (partner 0.1 µM)
The method, boiled down:
as §1

Compound in the assay “Etoposide + Olaparib”: COc1cc([C@@H]2c3cc4c(cc3[C@@H](O[C@@H]3O[C@@H]5CO[C@@H](C)O[C@H]5[C@H](O)[C@H]3O)[C@H]3COC(=O)[C@H]23)OCO4)cc(OC)c1O [Etoposide] + O=C(c1cc(Cc2n[nH]c(=O)c3ccccc23)ccc1F)N1CCN(C(=O)C2CC2)CC1 [Olaparib] (partner 8 µM)
The method, boiled down:
as §1

In the case of RERF-LC-KJ, the relative viability with Bleomycin + Pictilisib (first compound 0.01 µM) is 0.269; in the assay with Bleomycin + Pictilisib (first compound 0.03162 µM), 0.433; with Bleomycin + Pictilisib (first compound 0.1 µM), 0.316; in the assay with Bleomycin + Pictilisib (first compound 0.3162 µM), 0.188; with Bleomycin + Pictilisib (first compound 1 µM), 0.167; with Bleomycin + Foretinib (first compound 0.01 µM), 0.735. Besides, the relative viability with Bleomycin + Foretinib (first compound 0.03162 µM) came out at 0.693; with Bleomycin + Foretinib (first compound 0.1 µM), 0.633; with Bleomycin + Foretinib (first compound 0.3162 µM), 0.377; in the assay with Bleomycin + Foretinib (first compound 1 µM), 0.307; with Etoposide + Tozasertib (first compound 0.01 µM), 0.532; with Etoposide + Tozasertib (first compound 0.03162 µM), 0.448. Also, the relative viability with Etoposide + Tozasertib (first compound 0.1 µM) came to 0.493; with Etoposide + Tozasertib (first compound 0.3162 µM), 0.386; in the assay with Etoposide + Tozasertib (first compound 1 µM), 0.316; with Etoposide + Olaparib (first compound 0.01 µM), 0.827; in the assay with Etoposide + Olaparib (first compound 0.03162 µM) it was 0.877; in the assay with Etoposide + Olaparib (first compound 0.1 µM), 0.861. Besides, the relative viability was determined as 0.633 in the assay with Etoposide + Olaparib (first compound 0.3162 µM) and 0.417 in the assay with Etoposide + Olaparib (first compound 1 µM).

For EMC-BAC-2, the relative viability with Bleomycin + Pictilisib (first compound 0.01 µM) came out at 0.498; in the assay with Bleomycin + Pictilisib (first compound 0.03162 µM), 0.489; with Bleomycin + Pictilisib (first compound 0.1 µM) it was 0.427; with Bleomycin + Pictilisib (first compound 0.3162 µM), 0.282; in the assay with Bleomycin + Pictilisib (first compound 1 µM) it was 0.222; with Bleomycin + Foretinib (first compound 0.01 µM) it was 0.859. Besides, the relative viability amounted to 0.74 with Bleomycin + Foretinib (first compound 0.03162 µM); 0.63 in the assay with Bleomycin + Foretinib (first compound 0.1 µM); 0.35 with Bleomycin + Foretinib (first compound 0.3162 µM); 0.247 with Bleomycin + Foretinib (first compound 1 µM); 0.251 with Etoposide + Tozasertib (first compound 0.01 µM); 0.276 with Etoposide + Tozasertib (first compound 0.03162 µM). Moreover, the relative viability in the assay with Etoposide + Tozasertib (first compound 0.1 µM) was 0.288; in the assay with Etoposide + Tozasertib (first compound 0.3162 µM), 0.221; with Etoposide + Tozasertib (first compound 1 µM), 0.203; with Etoposide + Olaparib (first compound 0.01 µM), 0.443; with Etoposide + Olaparib (first compound 0.03162 µM), 0.413; in the assay with Etoposide + Olaparib (first compound 0.1 µM), 0.352. Moreover, the relative viability came out at 0.249 in the assay with Etoposide + Olaparib (first compound 0.3162 µM) and 0.214 with Etoposide + Olaparib (first compound 1 µM).

Regarding LK-2, the relative viability in the assay with Bleomycin + Pictilisib (first compound 0.01 µM) came to 0.517; in the assay with Bleomycin + Pictilisib (first compound 0.03162 µM), 0.489; with Bleomycin + Pictilisib (first compound 0.1 µM), 0.437; with Bleomycin + Pictilisib (first compound 0.3162 µM), 0.287; in the assay with Bleomycin + Pictilisib (first compound 1 µM) it was 0.278; with Bleomycin + Foretinib (first compound 0.01 µM), 0.803. The relative viability in the assay with Bleomycin + Foretinib (first compound 0.03162 µM) was 0.779; with Bleomycin + Foretinib (first compound 0.1 µM), 0.743; with Bleomycin + Foretinib (first compound 0.3162 µM), 0.36; in the assay with Bleomycin + Foretinib (first compound 1 µM), 0.285; with Etoposide + Tozasertib (first compound 0.01 µM), 0.207; with Etoposide + Tozasertib (first compound 0.03162 µM), 0.175. For the same cell line, the relative viability in the assay with Etoposide + Tozasertib (first compound 0.1 µM) stood at 0.18; with Etoposide + Tozasertib (first compound 0.3162 µM) it was 0.21; with Etoposide + Tozasertib (first compound 1 µM), 0.205; with Etoposide + Olaparib (first compound 0.01 µM), 0.618; with Etoposide + Olaparib (first compound 0.03162 µM) it was 0.81; with Etoposide + Olaparib (first compound 0.1 µM) it was 0.511. In addition, the values for the relative viability with Etoposide + Olaparib (first compound 0.3162 µM) and with Etoposide + Olaparib (first compound 1 µM) were 0.287 and 0.205, respectively.

With NCI-H2228, the relative viability with Bleomycin + Pictilisib (first compound 0.01 µM) is 0.553; with Bleomycin + Pictilisib (first compound 0.03162 µM), 0.356; with Bleomycin + Pictilisib (first compound 0.1 µM) it was 0.386; in the assay with Bleomycin + Pictilisib (first compound 0.3162 µM), 0.361; with Bleomycin + Pictilisib (first compound 1 µM) it was 0.328; with Bleomycin + Foretinib (first compound 0.01 µM) it was 0.853. Moreover, the relative viability was found to be 0.741 with Bleomycin + Foretinib (first compound 0.03162 µM); 0.695 in the assay with Bleomycin + Foretinib (first compound 0.1 µM); 0.274 with Bleomycin + Foretinib (first compound 0.3162 µM); 0.191 with Bleomycin + Foretinib (first compound 1 µM); 0.287 with Etoposide + Tozasertib (first compound 0.01 µM); 0.191 with Etoposide + Tozasertib (first compound 0.03162 µM). Also, the relative viability with Etoposide + Tozasertib (first compound 0.1 µM) came out at 0.247; with Etoposide + Tozasertib (first compound 0.3162 µM) it was 0.169; with Etoposide + Tozasertib (first compound 1 µM), 0.117; in the assay with Etoposide + Olaparib (first compound 0.01 µM), 0.586; with Etoposide + Olaparib (first compound 0.03162 µM) it was 0.524; with Etoposide + Olaparib (first compound 0.1 µM), 0.776. For the same cell line, the figures for the relative viability with Etoposide + Olaparib (first compound 0.3162 µM) and with Etoposide + Olaparib (first compound 1 µM) were 0.296 and 0.146, respectively.

As for NCI-H322M, the relative viability with Bleomycin + Pictilisib (first compound 0.01 µM) stood at 0.49; with Bleomycin + Pictilisib (first compound 0.03162 µM), 0.493; with Bleomycin + Pictilisib (first compound 0.1 µM), 0.491; with Bleomycin + Pictilisib (first compound 0.3162 µM), 0.4; with Bleomycin + Pictilisib (first compound 1 µM), 0.421; in the assay with Bleomycin + Foretinib (first compound 0.01 µM), 0.79. For the same cell line, the relative viability with Bleomycin + Foretinib (first compound 0.03162 µM) turned out to be 0.951; in the assay with Bleomycin + Foretinib (first compound 0.1 µM) it was 0.865; in the assay with Bleomycin + Foretinib (first compound 0.3162 µM), 0.563; with Bleomycin + Foretinib (first compound 1 µM) it was 0.401; with Etoposide + Tozasertib (first compound 0.01 µM), 0.484; with Etoposide + Tozasertib (first compound 0.03162 µM), 0.47. Also, the relative viability with Etoposide + Tozasertib (first compound 0.1 µM) stood at 0.423; with Etoposide + Tozasertib (first compound 0.3162 µM), 0.441; in the assay with Etoposide + Tozasertib (first compound 1 µM), 0.425; with Etoposide + Olaparib (first compound 0.01 µM) it was 0.781; with Etoposide + Olaparib (first compound 0.03162 µM) it was 0.764; with Etoposide + Olaparib (first compound 0.1 µM), 0.725. Besides, the relative viability in the assay with Etoposide + Olaparib (first compound 0.3162 µM) was found to be 0.548; in the assay with Etoposide + Olaparib (first compound 1 µM), 0.508.

With NCI-H1975, the relative viability with Bleomycin + Pictilisib (first compound 0.01 µM) stood at 0.288; in the assay with Bleomycin + Pictilisib (first compound 0.03162 µM), 0.256; in the assay with Bleomycin + Pictilisib (first compound 0.1 µM) it was 0.258; with Bleomycin + Pictilisib (first compound 0.3162 µM) it was 0.188; with Bleomycin + Pictilisib (first compound 1 µM), 0.134; in the assay with Bleomycin + Foretinib (first compound 0.01 µM), 0.708. For the same cell line, the relative viability with Bleomycin + Foretinib (first compound 0.03162 µM) amounted to 0.582; with Bleomycin + Foretinib (first compound 0.1 µM), 0.434; with Bleomycin + Foretinib (first compound 0.3162 µM) it was 0.191; in the assay with Bleomycin + Foretinib (first compound 1 µM), 0.198; with Etoposide + Tozasertib (first compound 0.01 µM), 0.721; in the assay with Etoposide + Tozasertib (first compound 0.03162 µM), 0.67. The relative viability with Etoposide + Tozasertib (first compound 0.1 µM) is 0.785; with Etoposide + Tozasertib (first compound 0.3162 µM), 0.495; with Etoposide + Tozasertib (first compound 1 µM), 0.197; in the assay with Etoposide + Olaparib (first compound 0.01 µM) it was 0.688; in the assay with Etoposide + Olaparib (first compound 0.03162 µM) it was 1.02; in the assay with Etoposide + Olaparib (first compound 0.1 µM), 0.881. Moreover, the relative viability with Etoposide + Olaparib (first compound 0.3162 µM) is 0.487; with Etoposide + Olaparib (first compound 1 µM) it was 0.252.

As for NCI-H1944, the relative viability is 0.284 with Bleomycin + Pictilisib (first compound 0.01 µM); 0.282 with Bleomycin + Pictilisib (first compound 0.03162 µM); 0.271 with Bleomycin + Pictilisib (first compound 0.1 µM); 0.204 with Bleomycin + Pictilisib (first compound 0.3162 µM); 0.184 with Bleomycin + Pictilisib (first compound 1 µM); 0.55 in the assay with Bleomycin + Foretinib (first compound 0.01 µM). Further, the relative viability was found to be 0.391 with Bleomycin + Foretinib (first compound 0.03162 µM); 0.384 in the assay with Bleomycin + Foretinib (first compound 0.1 µM); 0.225 with Bleomycin + Foretinib (first compound 0.3162 µM); 0.203 with Bleomycin + Foretinib (first compound 1 µM); 0.258 with Etoposide + Tozasertib (first compound 0.01 µM); 0.278 in the assay with Etoposide + Tozasertib (first compound 0.03162 µM). Moreover, the relative viability with Etoposide + Tozasertib (first compound 0.1 µM) stood at 0.211; with Etoposide + Tozasertib (first compound 0.3162 µM) it was 0.182; in the assay with Etoposide + Tozasertib (first compound 1 µM) it was 0.168; with Etoposide + Olaparib (first compound 0.01 µM), 0.378; with Etoposide + Olaparib (first compound 0.03162 µM), 0.417; with Etoposide + Olaparib (first compound 0.1 µM) it was 0.305. For the same cell line, the relative viability with Etoposide + Olaparib (first compound 0.3162 µM) was found to be 0.265; in the assay with Etoposide + Olaparib (first compound 1 µM) it was 0.197.
